Measurements: patent US10519131B2, “Benzazepine compounds, conjugates, and uses thereof” (SILVERBACK THERAPEUTICS, INC., priority 2017, dated 2019)
pEC50: −log10 of the molar value.

What was measured:
[1] = test system: Human peripheral blood mononuclear cells (PBMC); assay: PBMC screening assay, TNF-α in supernatant; type: cell-based; details: 24 hours, TNF-α in supernatant by ELISA or HTRF
Procedure: Human peripheral blood mononuclear cells (PBMC) were obtained from BenTek, frozen at 25×10^6 cell/mL in 10% DMSO (Sigma) prepared in fetal bovine serum (Gibco) and stored in liquid nitrogen. For culture PBMC were thawed quickly in a 37° C. water bath and diluted into pre-warmed RPMI 1640 (Lonza) supplemented with 10% fetal bovine serum, 2 mM glutamine, 50 μg/mL penicillin, 50 U/mL streptomycin (all from Gibco) and centrifuged for 5 minutes at 500×g. PBMC were suspended into the growth media described above and cultured at a concentration of 1×10^6 cells per mL at 37° C. in a 5% CO2 incubator.
PBMC were thawed, suspended at a concentration of 1×10^6 cell/mL in growth media and 200 μL was aliquoted into each well of a 96-well plate for a total of 0.2×10^6 cells per well. PBMC were incubated for 16-18 hours at 37° C. in a 5% CO2 humidified incubator. The following day PBMC plates were centrifuged at 500×g for 5 minutes and the growth media was removed. […] TNF-α activity was assessed in the supernatant by ELISA (eBioscience) or HTRF (CisBio) per the manufacturer's instructions. Optical density at 450 nm and 570 nm (ELISA) or luminescence (HTRF) was analyzed using an Envision (Perkin Elmer) plate reader, as shown in Table 5.

[2] = test system: human monocytes injected intratumorally; assay: Antigen dependent monocyte activation in a mouse tumor model; type: in vivo, NOD SCID mice; details: 5-20 mg/kg intravenously
Procedure: Human monocytes were prepared as described above. Trop2^+ MDA-MB-453 cells or Trop2-MiaPaca2 were cultured by standard methods. A TLR8 benzazepine linker payload (LP) was prepared by attaching a MCC (N-maleimidomethyl]cyclohexane-1-carboxylate) linker in place of the mc-vc-PABA linker in Compound-Linker 2.1 to form Compound-Linker 2.22. TROP2-TLR8 benzazepine conjugates were prepared by conjugation of Compound-Linker 2.22 to a TROP2 antibody (sacituzumab) to form a conjugate with an average DAR of about 4.
On Day 1 NOD SCID mice were injected with 5×10^5 Trop2^+ MDA-MB-453 cells or Trop2-MiaPaca2 cells. Seven to ten days later when the tumor size reached about 300 mm^3, the mice were injected intravenously with 5-20 mg/kg of the TROP2-TLR8 benzazepine conjugate or TROP2 antibody alone. Sixteen hours later, 10^6 human monocytes were injected intratumorally. Four to six hours later, the tumors were harvested and digested. Monocytes were identified by staining for cell surface markers and monocyte activation was determined by intracellular staining for IL-6.

Row | Compound | pEC50 [1] | human monocyte activation (intracellular staining for IL-6) ([2]; mice having a TROP2-tumor (MiaPaca2)) | human monocyte activation (intracellular staining for IL-6) ([2]; mice having a TROP2^+ tumor (MDA-MB-453))
1 | CCCN(CCC)C(=O)C1=Cc2ccc(C(=O)NC3C[C@@H]3c3ccccc3)cc2N=C(N)C1 (stereo partly shown) [Compound 1.28] | > 6.30 |  | 
2 | CCCN(CCC)C(=O)C1=Cc2ccc(C(=O)Nc3ccc4c(c3)CN(C(=O)OCc3ccccc3)CC4)cc2N=C(N)C1 [Compound 1.30] | > 6.30 |  | 
3 | control antibody: "TROP2 antibody alone" (sacituzumab) in Example 16; elsewhere the unconjugated parental aTROP2 or aHER2 antibody |  | did not cause human monocyte activation | did not cause human monocyte activation
